Article PMC11449996 (Clinical Pharmacokinetics, 2024)
Converted amounts (≈) assume the structure as drawn. Like-named read-outs stand apart in the source and are kept apart here.

Key:
[1] = system: C-reactive protein (C-RP) production; format: in vivo, patients
[2] = cited from earlier work
[3] = cited from earlier work; remark: listed apart in the source
[4] = system: hepatic cytochromes; settings: ref 13; cited from earlier work
[5] = system: staphylococci; settings: cited from earlier work
[6] = Population pharmacokinetic model of dalbavancin; format: in vivo, patients
[7] = system: Staphylococcus epidermidis; settings: bloodstream infection isolates, 72 US and European medical centers; cited from earlier work
[8] = system: MRSA; settings: bloodstream infection isolates, 72 US and European medical centers; cited from earlier work
[9] = median of 1000 non-parametric bootstrap iterations
[10] = population estimate, final PK/PD model

CN[C@H]1C(=O)N[C@@H]2Cc3ccc(cc3)Oc3cc4cc(c3O[C@@H]3O[C@H](C(=O)O)[C@@H](O)[C@H](O)[C@H]3NC(=O)CCCCCCCCC(C)C)Oc3ccc(cc3Cl)[C@@H](O)[C@@H]3NC(=O)[C@H](NC(=O)[C@@H]4NC(=O)[C@@H](NC2=O)c2cc(cc(O)c2Cl)Oc2cc1ccc2O)c1ccc(O)c(c1)-c1c(O[C@H]2O[C@H](CO)[C@@H](O)[C@H](O)[C@@H]2O)cc(O)cc1[C@@H](C(=O)NCCCN(C)C)NC3=O [dalbavancin, Dalbavancin]
free IC50 on C-RP production ([1]; from total IC50 […] mg/L considering plasma protein binding of 93%): 0.05 µg/mL | IC50, bootstrap median [1, 9]: 0.58 µg/mL (≈ 0.319 µM) | kout, bootstrap median [1, 9]: 0.0038 h^–1 | kout, elimination rate of C-RP concentration in plasma ([1]; population estimate, final PK/PD model, 211 C-RP plasma concentrations): 0.0037 h^–1 | terminal half-life ([2]; intravenous route): 147 to 258 h | CL, population estimates of previous studies ([2]; ref 5, 25, 26): 0.043 to 0.057 L/h | V, population estimates of previous studies ([2]; ref 5, 25, 26): 15 to 15.9 L | administered dose excreted in urine ([2]; ref 13): up to 42% | plasma protein binding ([3]; ref 13): 93–98% | plasma protein binding ([3]; ref 15): 93% | drug–drug interactions [4]: no clinically relevant drug–drug interactions | substrate of the hepatic cytochromes [4]: not a substrate of the hepatic cytochromes | MIC90, value at which 90% of the wild-type strains are inhibited [5]: 0.0625 µg/mL | clearance ([6]; human, plasma, intravenous, 1500 mg): 0.75 mL/min | CL, non-renal clearance of dalbavancin, bootstrap median [6, 9]: 0.028 L/h | Q, bootstrap median [6, 9]: 0.04 L/h | V1, bootstrap median [6, 9]: 5.98 L | V2, bootstrap median [6, 9]: 9.08 L | β_eGFR, bootstrap median [6, 9]: 0.005 | V1, volume of distribution of the central compartment [6, 10]: 5.93 L | V2, volume of distribution of the peripheral compartment [6, 10]: 9.55 L | β_eGFR, coefficient of eGFR when dalbavancin CL was scaled to eGFR ([6]; population estimate, final PK/PD model, eGFR by CKD-EPI): 0.0042 | MIC90 [7]: 0.06 µg/mL (≈ 0.033 µM) | MIC90 [8]: 0.03 µg/mL (≈ 0.0165 µM)
